In US11242327B2, “Analgesic compounds” (RECURIUM IP HOLDINGS, LLC, priority 2017, dated 2022):

Experiments:
[1] = Bioavailability Test (rat pharmacokinetics); assay type: in vivo; details: for F: PO 30 mg/kg vs IV 3 mg/kg; for AUC(0-inf) / clearance / half-life / Vd / Cmax / Tmax: male, Sprague-Dawley, in vivo; for Vd: read-out: Vdss
Description: Oral bioavailability of compounds of Formulae (Ie), (Ih), (Ik), and (Ir), or a pharmaceutically acceptable salt of any of the foregoing, were evaluated in fasted male Sprague-Dawley (SD) rats weighing 200-225g. Compounds were dosed at 3 mg/kg (IV) and 30 mg/kg (PO). Unless otherwise noted, compounds were dissolved in 0.9% saline for IV dosing and 100% sterile water for PO dosing. Pharmacokinetic parameters were determined using Phoenix WinNonlin (v7.0). […]

Opiate κ = Opiate κ (Homo sapiens, UniProt P41145); test: NSAIDS and Opioid Receptor Test: Opiate κ; assay type: binding; details: 10 μM
Description: Compounds were screened as DMSO solutions at 10 μM, 100 μM, or 200 μM and values represent percent inhibition of control-specific binding. […] As NSAID and opioid mechanisms of action are precluded, a person of ordinary skill in the art understands that undesirable side effects associated with inhibition of COX receptors in NSAIDs and activation of opiate receptors in opioids can be avoided by compounds described herein. Furthermore, opioids are known to lose their analgesic potency after to continued administration. (See Benyamin, et al. “Opioid Complications and Side Effects” Pain Physician 11 (2008): S105-S120). As the data indicates compounds described herein have a different mechanism action compared to opioids, a person of ordinary skill in the art would appreciate that compounds described herein would not be expected to lose their analgesic potency like opioids after continued admininistration.

male Sprague-Dawley rats [2] = test: Formalin Paw Test, rat, oral; assay type: in vivo; details: 30 mg/kg; for Early Phase, seconds of paw licking: early/acute phase (0-10 minutes); for Late Phase, seconds of paw licking: late/tonic phase (10-35 minutes)
Summary of the method: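 Paw licking recorded every 5 min for 35 min after formalin injection, in groups of 8 non-fasted males: Sprague-Dawley rats (200–225 g) dosed orally or ICR mice (23±3 g) dosed intraperitoneally. Scores are licking-time bins: A <70 s, B 70–165 s, C >165 s.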

male Sprague-Dawley rats [3] = test: Osteoarthritis Pain Test (MIA, mechanical hyperalgesia); assay type: in vivo; details: rat; for joint compression threshold, Day 3, 1 h: Day 3, 1 h post-dosing; for joint compression threshold, Day 3, 2 h: Day 3, 2 h post-dosing; for joint compression threshold, Day 3, 4 h: Day 3, 4 h post-dosing; for joint compression threshold, Day 6, 1 h: Day 6, 1 h post-dosing; for joint compression threshold, Day 6, 2 h: Day 6, 2 h post-dosing; for joint compression threshold, Day 6, 4 h: Day 6, 4 h post-dosing; for joint compression threshold, Day 0, 1 h: Day 0, 1 h post-dosing; for joint compression threshold, Day 0, 2 h: Day 0, 2 h post-dosing; for joint compression threshold, Day 0, 4 h: Day 0, 4 h post-dosing
Description: Osteoarthritis pain was induced in non-fasted male Sprague-Dawley rats weighing 150-250 g by injecting 2 mg of monosodium iodoacetate (MIA) into the left knee joint. Mechanical hyperalgesia was measured using a digital Randall-Selitto device (dRS; IITC Life Sciences©; Woodland Hills, Calif.). Animals were allowed to acclimate to the testing room for a minimum of 15 minutes before testing. Animals were placed in a restraint sling that suspended the animal, leaving the hind limbs available for testing. The stimulus was applied to the knee joint by a blunt tip and pressure was applied gradually over approximately 10 seconds. Joint compression threshold values were recorded at the first observed nocifensive behavior (vocalization, struggle, or withdrawal). One reading per joint was taken at each time point, and a maximum stimulus cutoff of 500 grams was used to prevent injury to the animal. Mechanical hyperalgesia was assessed prior to MIA injection, and again 14 days later. After 14 days, test or control articles were administered once daily for 7 days with mechanical hyperalgesia assessed prior to dosing, 1, 2, and 4 hours post-dosing on days 0, 3, and 6. Test compounds were administered orally at concentrations of 3, 10, 30 or 100 mg/kg and celecoxib was administered orally at a concentration of 30 mg/kg. The control group received the vehicle (sterile water). After day 0, groups receiving the 100 mg/kg dose were reduced to a dose of 3 mg/kg. In Table 5, ‘A’ designates ≥375 grams of joint compression, ‘B’ designates ≥325 and <375 grams of joint compression, and ‘C’ designates <325 grams of joint compression.
The results provided in Table 5 are for oral administration in rats.

[4] = oral once daily, 3 mg/kg (group had 100 mg/kg on day 0)

Opiate κ, sequence (P41145 whole entry): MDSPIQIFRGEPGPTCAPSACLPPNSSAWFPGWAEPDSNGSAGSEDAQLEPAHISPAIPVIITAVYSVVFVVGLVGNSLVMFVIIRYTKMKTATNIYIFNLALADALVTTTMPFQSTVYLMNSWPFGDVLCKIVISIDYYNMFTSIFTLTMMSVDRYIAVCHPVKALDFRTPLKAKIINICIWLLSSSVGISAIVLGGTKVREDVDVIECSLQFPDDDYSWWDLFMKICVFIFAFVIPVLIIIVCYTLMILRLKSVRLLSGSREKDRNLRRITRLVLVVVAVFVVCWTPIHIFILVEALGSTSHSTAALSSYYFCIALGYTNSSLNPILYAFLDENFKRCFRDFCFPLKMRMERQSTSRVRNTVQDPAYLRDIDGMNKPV

| SMILES | F [1] [%] | AUC(0-inf) ([1]; IV 3 mg/kg, 0.9% saline) [µM·h] | clearance ([1]; IV 3 mg/kg, 0.9% saline) [mL/min/kg] | half-life ([1]; IV 3 mg/kg, 0.9% saline) [h] | Vd ([1]; IV 3 mg/kg, 0.9% saline) [L/kg] | AUC(0-inf) ([1]; PO 30 mg/kg, sterile water) [µM·h] | Cmax ([1]; PO 30 mg/kg, sterile water) [µM] | Tmax ([1]; PO 30 mg/kg, sterile water) [h] | half-life ([1]; PO 30 mg/kg, sterile water) [h] | inhibition at 10 µM (Opiate κ) [%] | Early Phase, seconds of paw licking (male Sprague-Dawley rats [2]) | Late Phase, seconds of paw licking (male Sprague-Dawley rats [2]) | joint compression threshold, Day 3, 1 h (male Sprague-Dawley rats [3]; [4]) | joint compression threshold, Day 3, 2 h (male Sprague-Dawley rats [3]; [4]) | joint compression threshold, Day 3, 4 h (male Sprague-Dawley rats [3]; [4]) | joint compression threshold, Day 6, 1 h (male Sprague-Dawley rats [3]; [4]) | joint compression threshold, Day 6, 2 h (male Sprague-Dawley rats [3]; [4]) | joint compression threshold, Day 6, 4 h (male Sprague-Dawley rats [3]; [4]) | joint compression threshold, Day 0, 1 h (male Sprague-Dawley rats [3]; oral once daily, 10 mg/kg) | joint compression threshold, Day 0, 2 h (male Sprague-Dawley rats [3]; oral once daily, 10 mg/kg) | also measured |
| --- | --- | --- | --- | --- | --- | --- | --- | --- | --- | --- | --- | --- | --- | --- | --- | --- | --- | --- | --- | --- | --- |
| Cl.NC12CC(c3nc(C(F)(F)F)cs3)(C1)C2 [Compound 1, 3-(4-(Trifluoromethyl)thiazol-2-yl)bicyclo[1.1.1]pentan-1-amine hydrochloride] | 115 | 19.2 | 11 | 3.1 | 1.4 | 277 | 49 | 0.3 | 5.6 | -4 | A (<70 seconds of paw licking) | B (>70 and <165 seconds of paw licking) | A (≥375 grams of joint compression) | A (≥375 grams of joint compression) | A (≥375 grams of joint compression) | A (≥375 grams of joint compression) | B (≥325 and <375 grams of joint compression) | A (≥375 grams of joint compression) | B (≥325 and <375 grams of joint compression) | C (<325 grams of joint compression) | joint compression threshold, Day 0, 4 h (male Sprague-Dawley rats [3]; oral once daily, 10 mg/kg): C (<325 grams of joint compression); joint compression threshold, Day 3, 1 h (male Sprague-Dawley rats [3]; oral once daily, 10 mg/kg): B (≥325 and <375 grams of joint compression); joint compression threshold, Day 3, 2 h (male Sprague-Dawley rats [3]; oral once daily, 10 mg/kg): B (≥325 and <375 grams of joint compression); joint compression threshold, Day 3, 4 h (male Sprague-Dawley rats [3]; oral once daily, 10 mg/kg): B (≥325 and <375 grams of joint compression); joint compression threshold, Day 6, 1 h (male Sprague-Dawley rats [3]; oral once daily, 10 mg/kg): B (≥325 and <375 grams of joint compression); joint compression threshold, Day 6, 2 h (male Sprague-Dawley rats [3]; oral once daily, 10 mg/kg): B (≥325 and <375 grams of joint compression); joint compression threshold, Day 6, 4 h (male Sprague-Dawley rats [3]; oral once daily, 10 mg/kg): B (≥325 and <375 grams of joint compression); joint compression threshold, Day 0, 1 h (male Sprague-Dawley rats [3]; oral once daily, 30 mg/kg): B (≥325 and <375 grams of joint compression); joint compression threshold, Day 0, 2 h (male Sprague-Dawley rats [3]; oral once daily, 30 mg/kg): B (≥325 and <375 grams of joint compression); joint compression threshold, Day 0, 4 h (male Sprague-Dawley rats [3]; oral once daily, 30 mg/kg): B (≥325 and <375 grams of joint compression); joint compression threshold, Day 3, 1 h (male Sprague-Dawley rats [3]; oral once daily, 30 mg/kg): A (≥375 grams of joint compression); joint compression threshold, Day 3, 2 h (male Sprague-Dawley rats [3]; oral once daily, 30 mg/kg): A (≥375 grams of joint compression); joint compression threshold, Day 3, 4 h (male Sprague-Dawley rats [3]; oral once daily, 30 mg/kg): B (≥325 and <375 grams of joint compression); joint compression threshold, Day 6, 1 h (male Sprague-Dawley rats [3]; oral once daily, 30 mg/kg): A (≥375 grams of joint compression); joint compression threshold, Day 6, 2 h (male Sprague-Dawley rats [3]; oral once daily, 30 mg/kg): B (≥325 and <375 grams of joint compression); joint compression threshold, Day 6, 4 h (male Sprague-Dawley rats [3]; oral once daily, 30 mg/kg): B (≥325 and <375 grams of joint compression); joint compression threshold, Day 0, 1 h (male Sprague-Dawley rats [3]; oral, 100 mg/kg): A (≥375 grams of joint compression); joint compression threshold, Day 0, 2 h (male Sprague-Dawley rats [3]; oral, 100 mg/kg): A (≥375 grams of joint compression); joint compression threshold, Day 0, 4 h (male Sprague-Dawley rats [3]; oral, 100 mg/kg): A (≥375 grams of joint compression) |
| Cc1sc(C23CC(N)(C2)C3)nc1C(F)(F)F.Cl [Compound 2, 3-(5-Methyl-4-(trifluoromethyl)thiazol-2-yl)bicyclo[1.1.1]pentan-1-amine hydrochloride] | 79 | 4 | 52 | 2.7 | 3.6 | 29 | 12 | 1 | 2.4 | -9 | A (<70 seconds of paw licking) | A (<70 seconds of paw licking) | A (≥375 grams of joint compression) | A (≥375 grams of joint compression) | A (≥375 grams of joint compression) | B (≥325 and <375 grams of joint compression) | B (≥325 and <375 grams of joint compression) | B (≥325 and <375 grams of joint compression) | C (<325 grams of joint compression) | C (<325 grams of joint compression) | joint compression threshold, Day 0, 4 h (male Sprague-Dawley rats [3]; oral once daily, 10 mg/kg): C (<325 grams of joint compression); joint compression threshold, Day 3, 1 h (male Sprague-Dawley rats [3]; oral once daily, 10 mg/kg): B (≥325 and <375 grams of joint compression); joint compression threshold, Day 3, 2 h (male Sprague-Dawley rats [3]; oral once daily, 10 mg/kg): A (≥375 grams of joint compression); joint compression threshold, Day 3, 4 h (male Sprague-Dawley rats [3]; oral once daily, 10 mg/kg): C (<325 grams of joint compression); joint compression threshold, Day 6, 1 h (male Sprague-Dawley rats [3]; oral once daily, 10 mg/kg): B (≥325 and <375 grams of joint compression); joint compression threshold, Day 6, 2 h (male Sprague-Dawley rats [3]; oral once daily, 10 mg/kg): B (≥325 and <375 grams of joint compression); joint compression threshold, Day 6, 4 h (male Sprague-Dawley rats [3]; oral once daily, 10 mg/kg): A (≥375 grams of joint compression); joint compression threshold, Day 0, 1 h (male Sprague-Dawley rats [3]; oral once daily, 30 mg/kg): B (≥325 and <375 grams of joint compression); joint compression threshold, Day 0, 2 h (male Sprague-Dawley rats [3]; oral once daily, 30 mg/kg): B (≥325 and <375 grams of joint compression); joint compression threshold, Day 0, 4 h (male Sprague-Dawley rats [3]; oral once daily, 30 mg/kg): B (≥325 and <375 grams of joint compression); joint compression threshold, Day 3, 1 h (male Sprague-Dawley rats [3]; oral once daily, 30 mg/kg): B (≥325 and <375 grams of joint compression); joint compression threshold, Day 3, 2 h (male Sprague-Dawley rats [3]; oral once daily, 30 mg/kg): B (≥325 and <375 grams of joint compression); joint compression threshold, Day 3, 4 h (male Sprague-Dawley rats [3]; oral once daily, 30 mg/kg): B (≥325 and <375 grams of joint compression); joint compression threshold, Day 6, 1 h (male Sprague-Dawley rats [3]; oral once daily, 30 mg/kg): B (≥325 and <375 grams of joint compression); joint compression threshold, Day 6, 2 h (male Sprague-Dawley rats [3]; oral once daily, 30 mg/kg): B (≥325 and <375 grams of joint compression); joint compression threshold, Day 6, 4 h (male Sprague-Dawley rats [3]; oral once daily, 30 mg/kg): A (≥375 grams of joint compression); joint compression threshold, Day 0, 1 h (male Sprague-Dawley rats [3]; oral, 100 mg/kg): A (≥375 grams of joint compression); joint compression threshold, Day 0, 2 h (male Sprague-Dawley rats [3]; oral, 100 mg/kg): A (≥375 grams of joint compression); joint compression threshold, Day 0, 4 h (male Sprague-Dawley rats [3]; oral, 100 mg/kg): A (≥375 grams of joint compression) |
